According to the supplement of paper PMC11061612:

Columns and labels:
Assay in all cases: combination Emax (second highest fraction inhibited in the dose matrix, 72 h); higher = more inhibition; extreme values may be limits of the assay
8-MG-BA (Glioblastoma) = test system: 8-MG-BA (Glioblastoma)
How it was run: (§1)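 Bliss excess equals the observed combination effect minus the expected value EA + EB − EA·EB, where EA and EB are the effects of each agent alone. Combination Emax is the second-highest inhibition within the matrix. Inhibition was scaled from CellTiter-Glo 2.0 luminescence, with 0 set by vehicle wells and 1 by blank wells, after 72 hours of two-drug dosing of cells plated in 1536-well plates.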

[1] = test system: CAL-29 (Bladder Carcinoma)
How it was run: as §1

PA-1 (Ovarian Carcinoma) = test system: PA-1 (Ovarian Carcinoma)
How it was run: as §1

[2] = test system: NCI-H1650 (Lung Adenocarcinoma)
How it was run: as §1

[3] = test system: NCI-H1581 (Non-Small Cell Lung Carcinoma)
How it was run: as §1

[4] = test system: SISO (Cervical Carcinoma)
How it was run: as §1

A498 (Kidney Carcinoma) = test system: A498 (Kidney Carcinoma)
How it was run: as §1

[5] = test system: ONS-76 (Other Solid Carcinomas)
How it was run: as §1

[6] = test system: NCI-H2066 (Squamous Cell Lung Carcinoma)
How it was run: as §1

CAS-1 (Glioblastoma) = test system: CAS-1 (Glioblastoma)
How it was run: as §1

[7] = test system: HCC1954 (Breast Carcinoma)
How it was run: as §1

[8] = test system: KARPAS-422 (B-Cell Non-Hodgkin's Lymphoma)
How it was run: as §1

[9] = test system: COLO-320-HSR (Colorectal Carcinoma)
How it was run: as §1

[10] = test system: A3-KAW (B-Cell Non-Hodgkin's Lymphoma)
How it was run: as §1

[11] = test system: TT (Thyroid Gland Carcinoma)
How it was run: as §1

IGR-37 (Melanoma) = test system: IGR-37 (Melanoma)
How it was run: as §1

[12] = test system: BICR22 (Oral Cavity Carcinoma)
How it was run: as §1

[13] = test system: NCI-H1666 (Lung Adenocarcinoma)
How it was run: as §1

[14] = test system: COR-L311 (Small Cell Lung Carcinoma)
How it was run: as §1

[15] = test system: JSC-1 (B-Cell Non-Hodgkin's Lymphoma)
How it was run: as §1

Row | Compound | combination Emax (8-MG-BA (Glioblastoma)) | combination Emax [1] | combination Emax (PA-1 (Ovarian Carcinoma)) | combination Emax [2] | combination Emax [3] | combination Emax [4] | combination Emax (A498 (Kidney Carcinoma)) | combination Emax [5] | combination Emax [6] | combination Emax (CAS-1 (Glioblastoma)) | combination Emax [7] | combination Emax [8] | combination Emax [9] | combination Emax [10] | combination Emax [11] | combination Emax (IGR-37 (Melanoma)) | combination Emax [12] | combination Emax [13] | combination Emax [14] | combination Emax [15]
1 | COc1nnc2ccc(N3CCC(c4ccc(OCCN5CCN(C)C(=O)[C@H]5C)cc4)CC3)nn12 [AZD5153] + CCN(CCO)CCCOc1ccc2c(Nc3cc(CC(=O)Nc4cccc(F)c4)[nH]n3)ncnc2c1 [AZD2811] (first compound max 1 µM, 7x7, partner max 1 µM) | 0.74 | 0.372 | 0.904 | 0.415 | 0.437 | 0.486 | 0.459 | 0.56 | 0.344 | 0.646 | 0.263 | 0.676 | 0.503 | 1 | 0.692 | 0.597 | 0.463 | 0.432 | 0.936 | 0.775
2 | COc1nnc2ccc(N3CCC(c4ccc(OCCN5CCN(C)C(=O)[C@H]5C)cc4)CC3)nn12 [AZD5153] + C[C@@H]1COCCN1C2=NC(=NC(=C2)C3(CC3)[S@](=N)(=O)C)C4=C5C=CNC5=NC=C4 [AZD6738] (first compound max 1 µM, 7x7, partner max 10 µM) | 0.837 | 0.7 | 0.973 | 0.509 | 0.714 | 0.757 | 0.65 | 0.747 | 0.41 | 0.712 | 0.657 | 0.887 | 0.719 | 1 | 0.629 | 0.757 | 0.709 | 0.493 | 0.95 | 0.901
3 | COc1nnc2ccc(N3CCC(c4ccc(OCCN5CCN(C)C(=O)[C@H]5C)cc4)CC3)nn12 [AZD5153] + Cc1c2c(nn1C)CSCc1cc(n(C)n1)CSc1cc(c3ccccc3c1)OCCCc1c(C(=O)O)n(C)c3c-2c(Cl)ccc13 [AZD5991] (first compound max 1 µM, 7x7, partner max 1 µM) | 0.94 | 0.355 | 1 | 0.441 | 0.983 | 0.508 | 0.529 | 0.497 | 0.35 | 0.64 | 0.956 | 0.991 | 0.89 | 1 | 0.623 | 0.949 | 0.901 | 0.423 | 0.971 | 1
4 | COc1nnc2ccc(N3CCC(c4ccc(OCCN5CCN(C)C(=O)[C@H]5C)cc4)CC3)nn12 [AZD5153] + Cn1cnc2c(F)c(Nc3ccc(Br)cc3Cl)c(C(=O)NOCCO)cc21 [Selumetinib] (first compound max 1 µM, 7x7, partner max 10 µM) | 0.796 | 0.595 | 0.91 | 0.441 | 0.599 | 0.452 | 0.867 | 0.697 | 0.345 | 0.599 | 0.263 | 0.68 | 0.333 | 1 | 0.524 | 1 | 0.564 | 0.558 | 0.847 | 0.805
5 | Cc1c2c(nn1C)CSCc1cc(n(C)n1)CSc1cc(c3ccccc3c1)OCCCc1c(C(=O)O)n(C)c3c-2c(Cl)ccc13 [AZD5991] + C1CN(CCC1(C(=O)N[C@@H](CCO)C2=CC=C(C=C2)Cl)N)C3=NC=NC4=C3C=CN4 [Capivasertib] (first compound max 1 µM, 7x7, partner max 3 µM) | 0.85 | 0.342 | 0.947 | 0.41 | 1 | 0.173 | 0.561 | 0.249 | 0.424 | 0.573 | 0.996 | 0.994 | 0.845 | 1 | 0.366 | 0.207 | 0.689 | 0.274 | 0.718 | 1
6 | Cc1c2c(nn1C)CSCc1cc(n(C)n1)CSc1cc(c3ccccc3c1)OCCCc1c(C(=O)O)n(C)c3c-2c(Cl)ccc13 [AZD5991] + C=CCn1c(=O)c2cnc(Nc3ccc(N4CCN(C)CC4)cc3)nc2n1-c1cccc(C(C)(C)O)n1 [AZD1775] (first compound max 1 µM, partner max 1 µM) | 0.906 | 0.919 | 0.937 | 0.548 | 1 | 0.663 | 0.602 | 0.584 | 0.256 | 0.852 | 0.978 | 0.965 | 0.801 | 1 | 0.428 | 0.768 | 0.717 | 0.338 | 0.812 | 1
7 | Cc1c2c(nn1C)CSCc1cc(n(C)n1)CSc1cc(c3ccccc3c1)OCCCc1c(C(=O)O)n(C)c3c-2c(Cl)ccc13 [AZD5991] + CC1(C)CCC(CN2CCN(c3ccc(C(=O)NS(=O)(=O)c4ccc(NCC5CCOCC5)c([N+](=O)[O-])c4)c(Oc4cnc5[nH]ccc5c4)c3)CC2)=C(c2ccc(Cl)cc2)C1 [Venetoclax] (first compound max 1 µM, 7x7, partner max 1 µM) | 0.855 | 0.391 | 0.964 | 0.184 | 0.968 | 0.151 | 0.361 | 0.211 | 0.169 | 0.286 | 0.967 | 1 | 0.841 | 1 | 0.83 | 0.282 | 0.727 | 0.242 | 0.938 | 1
8 | Cc1c2c(nn1C)CSCc1cc(n(C)n1)CSc1cc(c3ccccc3c1)OCCCc1c(C(=O)O)n(C)c3c-2c(Cl)ccc13 [AZD5991] + CCN(CCO)CCCOc1ccc2c(Nc3cc(CC(=O)Nc4cccc(F)c4)[nH]n3)ncnc2c1 [AZD2811] (first compound max 1 µM, 7x7, partner max 1 µM) | 0.836 | 0.739 | 0.932 | 0.269 | 1 | 0.808 | 0.352 | 0.386 | 0.304 | 0.705 | 0.98 | 0.981 | 0.827 | 1 | 0.574 | 0.24 | 0.675 | 0.334 | 0.906 | 1
9 | Cc1c2c(nn1C)CSCc1cc(n(C)n1)CSc1cc(c3ccccc3c1)OCCCc1c(C(=O)O)n(C)c3c-2c(Cl)ccc13 [AZD5991] + CN(C)CCCOc1ccc(-c2ccc3ncc4c(c3c2)n(C2CCOCC2)c(=O)n4C)cn1 [AZD0156] (first compound max 1 µM, 7x7, partner max 1 µM) | 0.586 | 0.545 | 0.855 | 0.2 | 0.976 | 0.201 | 0.392 | 0.239 | 0.234 | 0.532 | 0.978 | 0.982 | 0.888 | 1 | 0.297 | 0.282 | 0.323 | 0.238 | 0.433 | 1
10 | Cc1c2c(nn1C)CSCc1cc(n(C)n1)CSc1cc(c3ccccc3c1)OCCCc1c(C(=O)O)n(C)c3c-2c(Cl)ccc13 [AZD5991] + C[C@@H]1COCCN1C2=NC(=NC(=C2)C3(CC3)[S@](=N)(=O)C)C4=C5C=CNC5=NC=C4 [AZD6738] (first compound max 1 µM, 7x7, partner max 10 µM) | 0.961 | 0.897 | 0.967 | 0.516 | 1 | 0.607 | 0.621 | 0.821 | 0.359 | 0.877 | 0.991 | 1 | 0.97 | 1 | 0.56 | 0.848 | 0.846 | 0.322 | 0.752 | 1
11 | Cc1c2c(nn1C)CSCc1cc(n(C)n1)CSc1cc(c3ccccc3c1)OCCCc1c(C(=O)O)n(C)c3c-2c(Cl)ccc13 [AZD5991] + C[C@@H](Nc1cc(F)cc(F)c1)c1cc(C(=O)N(C)C)cc2c(=O)cc(N3CCOCC3)oc12 [AZD8186] (first compound max 1 µM, 7x7, partner max 3 µM) | 0.734 | 0.421 | 0.964 | 0.297 | 0.991 | 0.123 | 0.742 | 0.244 | 0.343 | 0.467 | 0.974 | 0.94 | 0.907 | 1 | 0.394 | 0.325 | 0.537 | 0.386 | 0.508 | 1
12 | Cc1c2c(nn1C)CSCc1cc(n(C)n1)CSc1cc(c3ccccc3c1)OCCCc1c(C(=O)O)n(C)c3c-2c(Cl)ccc13 [AZD5991] + Cc1cc2ncnn2cc1Nc1ncc2c(n1)n(C1CCOCC1)c(=O)n2C [AZD7648] (first compound max 1 µM, 7x7, partner max 10 µM) | 0.646 | 0.43 | 0.906 | 0.168 | 1 | 0.191 | 0.423 | 0.315 | 0.299 | 0.401 | 0.992 | 1 | 0.808 | 1 | 0.38 | 0.25 | 0.499 | 0.246 | 0.343 | 1
